Results from patent US7235366B1 (priority 1993, dated 2007).
pEC50, pKi: −log10 of the molar value.

Legend:
[1] = target: T1, H278N mutant mouse delta opioid receptor (Mus musculus, UniProt P32300, H278N); assay: Forskolin-stimulated cAMP accumulation, COS-7 cells, H278N mutant; type: cell-based
T1 construct: expressed in transfected cells; host or cells: COS-7 (transient, pCMV6c)
Protocol: (§1) Briefly, COS-7 cells were subcultured in 12-well culture plates. The cells were transfected 48 hrs. prior to the cAMP experiments. Culture medium was removed from the wells and replaced with 500 μl of fresh medium containing 0.5 mM isobutylmethylxanthine (IBMX). Cells were incubated for 20 min at 37° C. Medium was removed and replaced with fresh medium containing 0.5 mM IBMX, with or without 10 μM forskolin and various opioid agonists. The cells were incubated for 30 min at 37° C. Medium was removed and cells sonicated in the wells in 500 μl of 1NCl. The HCl was evaporated off in a Speed-Vac and the cAMP analyzed using a radioimmunoassay kit from NEN/Dupont (Wilmington, Del.).

[2] = target: T2, D128N mutant mouse delta opioid receptor (Mus musculus, UniProt P32300, D128N); assay: biochemical; type: binding
T2 construct: expressed in transfected cells; host or cells: COS-7 (transient, pCMV6c)

[3] = target: T2, D128N mutant mouse delta opioid receptor; assay: Forskolin-stimulated cAMP accumulation, COS-7 cells, D128N mutant; type: cell-based
Protocol: as §1

[4] = target: T3, wild-type mouse delta opioid receptor (Mus musculus, UniProt P32300); assay: Forskolin-stimulated cAMP accumulation, COS-7 cells, wild-type delta receptor; type: cell-based
T3 construct: expressed in transfected cells; host or cells: COS-7 (transient, pCMV6c)
Protocol: as §1

cloned rat μ receptor = target: T4, cloned rat μ receptor (Rattus norvegicus, UniProt P33535); assay: biochemical; type: binding
T4 construct: expressed in transfected cells; host or cells: COS-7 (transient)

[5] = target: T3, wild-type mouse delta opioid receptor; assay: biochemical; type: binding
[6] = target: T1, H278N mutant mouse delta opioid receptor; assay: biochemical; type: binding
MOP2 = target: T5, MOP2 (Mus musculus, UniProt P35377); type: cell-based
T5 construct: expressed in transfected cells; host or cells: COS-7 (transient)

cloned mouse κ receptor = target: T6, cloned mouse κ receptor (Mus musculus, UniProt P33534); assay: biochemical; type: binding
T6 construct: expressed in transfected cells

cloned mouse δ receptor = target: T7, cloned mouse δ receptor (Mus musculus, UniProt P32300); assay: biochemical; type: binding
T7 construct: expressed in transfected cells

[7] = target: T8, mouse delta opioid receptor aspartate 95 to asparagine mutant (Mus musculus, UniProt P32300, D95N); assay: Binding to delta receptor mutant with aspartate 95 converted to asparagine, COS-7 cells
T8 construct: expressed in transfected cells; host or cells: COS-7
T8 sequence (P32300 whole entry D95N): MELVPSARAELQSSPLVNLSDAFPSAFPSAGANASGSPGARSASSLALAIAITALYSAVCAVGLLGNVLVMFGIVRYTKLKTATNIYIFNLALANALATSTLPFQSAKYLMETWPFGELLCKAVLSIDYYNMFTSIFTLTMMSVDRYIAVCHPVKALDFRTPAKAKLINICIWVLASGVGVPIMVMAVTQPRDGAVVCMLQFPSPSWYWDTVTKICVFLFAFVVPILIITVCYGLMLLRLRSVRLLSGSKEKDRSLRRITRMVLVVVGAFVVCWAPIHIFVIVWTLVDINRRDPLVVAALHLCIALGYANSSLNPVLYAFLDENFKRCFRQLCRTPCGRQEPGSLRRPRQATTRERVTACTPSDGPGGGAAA

T2 sequence (P32300 whole entry D128N): as the sequence (P32300 whole entry D95N) above, with N95D, D128N counted along it
T3 sequence (P32300 whole entry): as the sequence (P32300 whole entry D95N) above, with N95D counted along it
T1 sequence (P32300 whole entry H278N): as the sequence (P32300 whole entry D95N) above, with N95D, H278N counted along it
T5 sequence (P35377 whole entry): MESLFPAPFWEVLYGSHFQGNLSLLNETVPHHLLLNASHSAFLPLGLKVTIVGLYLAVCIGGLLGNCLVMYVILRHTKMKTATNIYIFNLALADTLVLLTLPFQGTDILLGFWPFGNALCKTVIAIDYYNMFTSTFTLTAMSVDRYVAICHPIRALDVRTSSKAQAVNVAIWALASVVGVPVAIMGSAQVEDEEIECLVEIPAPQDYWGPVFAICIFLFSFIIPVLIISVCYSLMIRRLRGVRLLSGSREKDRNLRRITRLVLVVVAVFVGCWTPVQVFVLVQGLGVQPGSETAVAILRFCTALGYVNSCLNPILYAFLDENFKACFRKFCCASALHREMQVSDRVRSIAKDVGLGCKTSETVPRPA
T7 sequence (P32300 whole entry): as the sequence (P32300 whole entry D95N) above, with N95D counted along it
T4 sequence (P33535 whole entry): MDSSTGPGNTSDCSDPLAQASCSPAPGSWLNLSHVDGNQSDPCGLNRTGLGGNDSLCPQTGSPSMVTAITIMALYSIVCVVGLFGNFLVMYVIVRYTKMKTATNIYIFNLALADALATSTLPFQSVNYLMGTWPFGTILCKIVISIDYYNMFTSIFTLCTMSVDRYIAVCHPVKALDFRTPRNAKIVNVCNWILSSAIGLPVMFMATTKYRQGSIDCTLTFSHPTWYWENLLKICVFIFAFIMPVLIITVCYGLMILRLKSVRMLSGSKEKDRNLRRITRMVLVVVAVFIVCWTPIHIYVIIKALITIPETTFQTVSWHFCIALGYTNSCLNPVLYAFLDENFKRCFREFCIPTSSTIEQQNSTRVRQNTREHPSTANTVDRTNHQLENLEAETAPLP
T6 sequence (P33534 whole entry): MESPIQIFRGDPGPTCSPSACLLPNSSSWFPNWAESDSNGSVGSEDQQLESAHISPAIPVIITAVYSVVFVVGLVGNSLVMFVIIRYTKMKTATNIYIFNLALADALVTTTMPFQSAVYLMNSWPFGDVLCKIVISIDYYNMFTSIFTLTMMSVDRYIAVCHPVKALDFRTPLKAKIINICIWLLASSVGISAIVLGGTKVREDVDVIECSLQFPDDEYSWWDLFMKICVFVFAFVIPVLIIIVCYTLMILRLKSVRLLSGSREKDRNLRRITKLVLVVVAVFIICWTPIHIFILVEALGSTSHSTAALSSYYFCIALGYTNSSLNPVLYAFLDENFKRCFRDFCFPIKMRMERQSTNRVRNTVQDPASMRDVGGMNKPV

With `CCC12CCN(CC3(O)CC3)C(Cc3ccc(O)cc31)C2(C)C` (racemic) [Bremazocine] the pEC50 [1] was 8.82, the pKi [2] was 5.57 and the pEC50 [3] was 7.10. It also gave a pEC50 [4] of 8.13, a pKi (cloned rat μ receptor) of 9.12 and a pKi [5] of 7.24. For the same compound, the pKi [6] was 8.77, the “Effect on forskolin-stimulated cAMP formation, MOP2” value (MOP2) was “no effect” and the pKi (cloned mouse κ receptor) was 10.05. For the same compound, the pKi (cloned mouse δ receptor) was 8.64 and the “Affinity of aspartate 95 mutant and wild-type delta receptors compared” value [7] was “similar”.
